Data as given in publication PMC9562005, “The Kinetic Mechanism of 3′-5′ Exonucleolytic Activity of AP Endonuclease Nfo from E. coli” (Cells, 2022).

Molecular target: T1, Nfo (AP endonuclease Nfo, endonuclease IV) (Escherichia coli, UniProt P0A6C1)
T1 construct: full-length from pET-11a with nfo gene, expressed in E. coli BL21(DE3); 30 kDa, 3 Zn2+ in active site; the PDB entries are earlier structures of Nfo-DNA complexes
Test: stopped-flow 2-aminopurine fluorescence, inhibition of […]'-5' exonuclease
Type: biochemical

Row | SMILES | IC50 [mM]
1 | Cc1cn([C@H]2C[C@H](O)[C@@H](COP(=O)(O)O)O2)c(=O)[nH]c1=O [thymidine monophosphate] | 4.4 ± 0.5
2 | Nc1nc2c(ncn2[C@H]2C[C@H](O)[C@@H](COP(=O)(O)O)O2)c(=O)[nH]1 [2′-deoxyguanosine monophosphate] | 3.2 ± 0.4
